# Test results published in US7452887B2, “Quinoline- and isoquinoline-based compounds exhibiting ATP-utilizing enzyme inhibitory activity, and compositions, and uses thereof” (Amphora Discovery Corporation, priority 2004, dated 2008).
# Columns and labels:
# Assay in all cases: HTS ATP-utilizing enzyme assay, off-chip mobility-shift (Caliper HTS 250)
# Assay type in all cases: biochemical
# Details in all cases: test compound 10 μM, kinase listed = active (greater than six-sigma from the mean activity of inactive compounds)
# [1] = molecular target: T1, BMX (Homo sapiens, UniProt P51813)
# T1 sequence (P51813 1-675): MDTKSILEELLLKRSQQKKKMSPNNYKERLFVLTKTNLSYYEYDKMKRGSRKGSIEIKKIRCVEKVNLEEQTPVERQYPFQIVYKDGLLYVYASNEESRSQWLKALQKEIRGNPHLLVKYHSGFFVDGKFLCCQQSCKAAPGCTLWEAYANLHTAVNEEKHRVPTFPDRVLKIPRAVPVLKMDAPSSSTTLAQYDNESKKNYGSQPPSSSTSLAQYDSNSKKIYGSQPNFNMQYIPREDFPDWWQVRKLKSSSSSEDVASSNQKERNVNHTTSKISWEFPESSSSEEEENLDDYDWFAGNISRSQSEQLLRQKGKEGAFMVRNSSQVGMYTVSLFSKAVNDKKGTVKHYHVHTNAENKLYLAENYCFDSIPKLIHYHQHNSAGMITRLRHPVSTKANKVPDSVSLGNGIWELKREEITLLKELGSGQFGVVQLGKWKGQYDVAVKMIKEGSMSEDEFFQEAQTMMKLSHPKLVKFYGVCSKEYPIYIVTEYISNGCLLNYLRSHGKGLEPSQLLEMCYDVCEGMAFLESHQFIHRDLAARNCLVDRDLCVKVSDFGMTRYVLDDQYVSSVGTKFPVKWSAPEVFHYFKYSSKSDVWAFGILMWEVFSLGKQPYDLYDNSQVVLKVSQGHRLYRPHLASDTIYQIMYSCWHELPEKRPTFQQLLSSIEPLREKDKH
# Summary of the method: (§1)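 Test compound at 10 μM final was incubated with kinase and peptide substrate in HEPES pH 7.5 buffer with Triton X-100 and BSA for 2.5 hrs at 20° C. to 22° C., then stopped with EDTA. Inhibition came from the substrate-to-phosphorylated-product ratio on a microfluidic mobility-shift read. EDTA wells served as 100% control.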
# [2] = molecular target: MAPKAPK2 (Homo sapiens, UniProt P49137)
# Summary of the method: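 Single-point screen of test compound at 10 μM against MAPKAPK2 with peptide substrate in HEPES pH 7.5 buffer (Triton X-100, BSA), 2.5 h at 20-22 °C. Substrate-to-phosphopeptide ratio was read by off-chip microfluidic mobility shift; EDTA and DMSO wells defined 100% and 0% controls, hits by six-sigma limits.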
# [3] = molecular target: AKT3 (Homo sapiens, UniProt Q9Y243)
# Summary of the method: as §1
# [4] = molecular target: T2, PRAK (Homo sapiens, UniProt Q8IW41)
# T2 sequence (Q8IW41 1-473): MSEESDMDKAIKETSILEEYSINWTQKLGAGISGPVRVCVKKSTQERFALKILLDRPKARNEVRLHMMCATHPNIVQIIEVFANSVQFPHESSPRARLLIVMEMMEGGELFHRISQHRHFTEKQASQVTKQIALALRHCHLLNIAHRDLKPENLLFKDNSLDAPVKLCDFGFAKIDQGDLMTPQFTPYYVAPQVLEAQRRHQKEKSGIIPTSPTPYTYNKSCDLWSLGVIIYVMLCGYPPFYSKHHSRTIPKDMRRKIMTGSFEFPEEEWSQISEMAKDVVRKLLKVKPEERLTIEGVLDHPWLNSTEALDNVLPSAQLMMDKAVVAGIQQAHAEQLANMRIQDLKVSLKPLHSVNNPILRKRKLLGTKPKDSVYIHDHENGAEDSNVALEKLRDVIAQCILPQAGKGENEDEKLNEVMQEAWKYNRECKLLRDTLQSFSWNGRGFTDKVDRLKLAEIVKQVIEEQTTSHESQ
# Summary of the method: as §1
# [5] = molecular target: T3, NEK2 (Homo sapiens, UniProt P51955)
# T3 sequence (P51955 1-445): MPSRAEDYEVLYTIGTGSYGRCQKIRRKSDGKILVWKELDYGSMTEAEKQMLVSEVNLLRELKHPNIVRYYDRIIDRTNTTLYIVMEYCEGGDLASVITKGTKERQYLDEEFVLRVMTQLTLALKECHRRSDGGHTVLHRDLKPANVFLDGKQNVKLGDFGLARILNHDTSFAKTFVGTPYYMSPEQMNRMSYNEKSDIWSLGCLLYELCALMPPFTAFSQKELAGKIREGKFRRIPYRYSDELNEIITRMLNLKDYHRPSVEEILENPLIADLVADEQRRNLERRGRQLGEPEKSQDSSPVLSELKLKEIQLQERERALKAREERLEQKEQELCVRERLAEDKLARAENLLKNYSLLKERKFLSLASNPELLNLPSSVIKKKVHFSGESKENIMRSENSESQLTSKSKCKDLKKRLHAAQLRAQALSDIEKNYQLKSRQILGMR
# Summary of the method: as §1
# [6] = molecular target: T4, CHEK1 (Homo sapiens, UniProt O14757)
# T4 sequence (O14757 1-476): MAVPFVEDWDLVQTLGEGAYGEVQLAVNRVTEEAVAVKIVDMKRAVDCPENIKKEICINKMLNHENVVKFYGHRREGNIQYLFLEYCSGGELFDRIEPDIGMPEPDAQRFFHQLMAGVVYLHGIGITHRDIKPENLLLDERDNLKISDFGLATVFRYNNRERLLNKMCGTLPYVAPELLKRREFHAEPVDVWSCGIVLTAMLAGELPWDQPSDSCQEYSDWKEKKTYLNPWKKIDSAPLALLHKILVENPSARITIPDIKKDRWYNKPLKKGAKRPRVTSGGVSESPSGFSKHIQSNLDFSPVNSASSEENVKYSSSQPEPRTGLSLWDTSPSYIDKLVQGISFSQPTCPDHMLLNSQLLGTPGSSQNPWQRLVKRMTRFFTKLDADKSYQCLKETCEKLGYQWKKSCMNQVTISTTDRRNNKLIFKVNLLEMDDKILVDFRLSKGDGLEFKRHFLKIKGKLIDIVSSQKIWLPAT
# Summary of the method: as §1
# [7] = molecular target: C-TAK1 (Homo sapiens, UniProt P27448)
# Summary of the method: as §1
# [8] = molecular target: T5, FLT-3 (Homo sapiens, UniProt P36888)
# T5 sequence (P36888 27-993): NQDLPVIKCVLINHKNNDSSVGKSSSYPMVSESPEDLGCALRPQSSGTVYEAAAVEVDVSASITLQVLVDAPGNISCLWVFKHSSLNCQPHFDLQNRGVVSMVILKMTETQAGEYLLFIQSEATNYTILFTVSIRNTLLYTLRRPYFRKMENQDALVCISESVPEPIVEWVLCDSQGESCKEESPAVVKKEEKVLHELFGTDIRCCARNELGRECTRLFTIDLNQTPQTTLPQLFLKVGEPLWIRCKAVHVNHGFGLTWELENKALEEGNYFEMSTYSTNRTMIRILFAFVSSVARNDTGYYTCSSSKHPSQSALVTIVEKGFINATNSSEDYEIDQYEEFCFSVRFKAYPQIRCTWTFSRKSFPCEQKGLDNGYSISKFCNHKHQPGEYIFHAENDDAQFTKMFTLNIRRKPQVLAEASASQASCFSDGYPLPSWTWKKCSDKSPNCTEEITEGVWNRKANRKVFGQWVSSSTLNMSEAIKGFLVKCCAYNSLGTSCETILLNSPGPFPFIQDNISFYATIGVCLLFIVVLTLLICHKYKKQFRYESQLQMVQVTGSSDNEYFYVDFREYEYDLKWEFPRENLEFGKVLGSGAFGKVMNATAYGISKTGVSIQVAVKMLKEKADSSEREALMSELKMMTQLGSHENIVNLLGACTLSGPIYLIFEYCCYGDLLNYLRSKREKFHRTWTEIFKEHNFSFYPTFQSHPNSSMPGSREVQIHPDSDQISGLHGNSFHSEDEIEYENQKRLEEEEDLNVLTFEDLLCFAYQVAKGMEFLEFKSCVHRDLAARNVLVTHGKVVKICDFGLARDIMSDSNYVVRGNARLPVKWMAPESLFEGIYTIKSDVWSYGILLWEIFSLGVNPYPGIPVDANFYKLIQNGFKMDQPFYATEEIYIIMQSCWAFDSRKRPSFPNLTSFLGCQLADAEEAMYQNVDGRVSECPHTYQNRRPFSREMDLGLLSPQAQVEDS
# Summary of the method: as §1
# [9] = molecular target: CHEK2 (Homo sapiens, UniProt O96017)
# Summary of the method: as §1
# [10] = molecular target: KIT (Homo sapiens, UniProt P10721)
# Summary of the method: as §1
# [11] = molecular target: GSK3-α (Homo sapiens, UniProt P49840)
# Summary of the method: as §1
# Sequence of AKT3 (Q9Y243 whole entry): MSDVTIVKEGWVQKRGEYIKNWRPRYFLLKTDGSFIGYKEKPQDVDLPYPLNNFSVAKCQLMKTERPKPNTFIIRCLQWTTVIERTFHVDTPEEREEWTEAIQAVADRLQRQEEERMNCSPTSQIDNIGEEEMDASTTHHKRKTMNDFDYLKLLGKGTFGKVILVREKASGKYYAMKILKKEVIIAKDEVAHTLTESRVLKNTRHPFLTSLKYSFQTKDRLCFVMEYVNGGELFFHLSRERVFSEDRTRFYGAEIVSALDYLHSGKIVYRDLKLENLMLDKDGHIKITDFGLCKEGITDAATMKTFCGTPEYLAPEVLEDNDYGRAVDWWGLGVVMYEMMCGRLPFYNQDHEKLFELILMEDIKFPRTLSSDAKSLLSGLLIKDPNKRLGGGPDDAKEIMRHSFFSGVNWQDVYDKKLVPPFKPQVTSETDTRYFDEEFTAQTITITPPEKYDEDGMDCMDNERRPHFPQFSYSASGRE
# Sequence of MAPKAPK2 (P49137 whole entry): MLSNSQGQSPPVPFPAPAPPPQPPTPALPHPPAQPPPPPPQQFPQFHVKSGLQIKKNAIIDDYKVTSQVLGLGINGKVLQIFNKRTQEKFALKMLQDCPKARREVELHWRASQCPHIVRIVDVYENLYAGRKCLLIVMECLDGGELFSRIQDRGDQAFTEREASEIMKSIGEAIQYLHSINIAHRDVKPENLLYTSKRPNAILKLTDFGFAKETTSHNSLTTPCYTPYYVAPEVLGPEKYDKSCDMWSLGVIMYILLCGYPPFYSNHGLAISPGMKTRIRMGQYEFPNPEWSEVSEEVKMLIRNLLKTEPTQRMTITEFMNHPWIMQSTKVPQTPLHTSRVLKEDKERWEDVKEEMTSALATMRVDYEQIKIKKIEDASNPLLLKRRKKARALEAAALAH
# Sequence of KIT (P10721 26-976): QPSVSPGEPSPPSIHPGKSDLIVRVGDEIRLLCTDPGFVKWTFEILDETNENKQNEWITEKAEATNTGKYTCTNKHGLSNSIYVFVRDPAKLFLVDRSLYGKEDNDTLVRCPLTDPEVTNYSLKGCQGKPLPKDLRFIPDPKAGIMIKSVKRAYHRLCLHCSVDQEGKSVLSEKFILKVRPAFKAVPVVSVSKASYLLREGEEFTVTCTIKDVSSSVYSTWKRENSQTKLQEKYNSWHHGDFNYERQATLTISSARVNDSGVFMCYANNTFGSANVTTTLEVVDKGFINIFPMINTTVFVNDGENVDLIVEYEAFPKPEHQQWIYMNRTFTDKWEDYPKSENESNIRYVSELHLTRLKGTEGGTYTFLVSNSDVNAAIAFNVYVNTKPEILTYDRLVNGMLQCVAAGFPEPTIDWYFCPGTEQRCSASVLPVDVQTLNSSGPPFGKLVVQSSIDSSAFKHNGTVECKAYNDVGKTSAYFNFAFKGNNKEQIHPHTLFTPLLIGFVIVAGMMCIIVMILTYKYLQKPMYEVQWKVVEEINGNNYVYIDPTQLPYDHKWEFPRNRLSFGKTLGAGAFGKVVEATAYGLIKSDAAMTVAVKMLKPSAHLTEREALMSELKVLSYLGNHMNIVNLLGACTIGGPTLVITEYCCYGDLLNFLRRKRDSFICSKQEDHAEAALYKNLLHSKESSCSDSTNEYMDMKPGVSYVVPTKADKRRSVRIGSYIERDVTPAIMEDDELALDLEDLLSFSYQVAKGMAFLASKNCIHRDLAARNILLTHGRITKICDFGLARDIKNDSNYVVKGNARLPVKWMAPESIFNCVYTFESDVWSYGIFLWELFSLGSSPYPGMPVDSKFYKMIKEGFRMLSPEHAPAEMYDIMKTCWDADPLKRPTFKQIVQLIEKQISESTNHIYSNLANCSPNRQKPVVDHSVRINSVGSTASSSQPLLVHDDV
# Sequence of C-TAK1 (P27448 whole entry): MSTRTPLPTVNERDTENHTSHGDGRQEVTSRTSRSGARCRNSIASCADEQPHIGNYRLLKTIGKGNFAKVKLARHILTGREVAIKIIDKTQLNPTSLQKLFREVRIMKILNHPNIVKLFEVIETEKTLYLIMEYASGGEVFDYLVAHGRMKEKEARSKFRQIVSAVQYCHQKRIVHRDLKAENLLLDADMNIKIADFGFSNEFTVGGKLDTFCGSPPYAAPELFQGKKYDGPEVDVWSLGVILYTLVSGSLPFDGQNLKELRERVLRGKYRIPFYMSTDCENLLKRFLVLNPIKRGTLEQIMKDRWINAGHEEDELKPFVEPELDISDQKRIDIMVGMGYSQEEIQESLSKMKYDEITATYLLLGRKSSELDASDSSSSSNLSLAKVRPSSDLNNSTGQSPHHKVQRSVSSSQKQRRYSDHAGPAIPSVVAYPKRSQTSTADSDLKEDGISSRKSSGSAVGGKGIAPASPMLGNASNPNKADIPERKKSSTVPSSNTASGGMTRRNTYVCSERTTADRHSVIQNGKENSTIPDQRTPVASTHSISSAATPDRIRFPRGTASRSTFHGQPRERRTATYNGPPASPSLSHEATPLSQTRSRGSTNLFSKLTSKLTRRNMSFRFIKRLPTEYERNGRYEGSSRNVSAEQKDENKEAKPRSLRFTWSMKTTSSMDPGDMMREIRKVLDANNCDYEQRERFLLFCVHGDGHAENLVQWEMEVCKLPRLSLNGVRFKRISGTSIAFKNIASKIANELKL
# Sequence of GSK3-α (P49840 whole entry): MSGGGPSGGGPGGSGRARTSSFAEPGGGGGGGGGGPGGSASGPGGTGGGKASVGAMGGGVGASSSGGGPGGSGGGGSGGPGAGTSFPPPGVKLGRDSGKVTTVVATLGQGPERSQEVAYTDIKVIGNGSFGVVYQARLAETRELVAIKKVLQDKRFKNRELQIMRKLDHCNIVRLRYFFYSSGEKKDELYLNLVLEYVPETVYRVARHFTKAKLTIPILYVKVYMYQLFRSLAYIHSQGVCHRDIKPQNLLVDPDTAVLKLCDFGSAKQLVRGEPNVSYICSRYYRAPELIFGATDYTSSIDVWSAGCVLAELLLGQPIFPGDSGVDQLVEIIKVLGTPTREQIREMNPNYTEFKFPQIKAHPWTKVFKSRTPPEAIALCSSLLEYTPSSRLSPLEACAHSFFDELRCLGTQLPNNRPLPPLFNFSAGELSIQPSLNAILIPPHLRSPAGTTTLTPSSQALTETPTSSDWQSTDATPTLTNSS
# Sequence of CHEK2 (O96017 whole entry): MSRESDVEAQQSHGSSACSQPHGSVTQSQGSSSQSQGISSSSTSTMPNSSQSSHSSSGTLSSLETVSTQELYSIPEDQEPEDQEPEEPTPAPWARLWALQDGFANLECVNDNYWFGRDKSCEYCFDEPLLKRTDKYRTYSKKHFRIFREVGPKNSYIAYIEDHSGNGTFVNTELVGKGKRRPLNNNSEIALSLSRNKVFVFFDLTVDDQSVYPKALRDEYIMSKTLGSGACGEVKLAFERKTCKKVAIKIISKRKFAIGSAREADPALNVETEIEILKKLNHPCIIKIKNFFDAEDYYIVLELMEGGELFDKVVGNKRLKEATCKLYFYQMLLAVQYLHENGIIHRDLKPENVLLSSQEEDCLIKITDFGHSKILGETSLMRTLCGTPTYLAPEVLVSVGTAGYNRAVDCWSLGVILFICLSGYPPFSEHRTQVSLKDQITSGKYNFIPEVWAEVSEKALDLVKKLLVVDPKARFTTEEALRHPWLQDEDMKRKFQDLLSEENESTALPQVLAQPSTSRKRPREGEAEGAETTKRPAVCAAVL
SMILES,Activity [1],Activity [2],Activity [4],other results
CCC(C)N1CCN(c2ccc(Nc3ccnc4ccc(-c5ccc(C#N)cc5)cc34)cc2)CC1 (stereo not drawn) [4-(4-(4-(4-sec-butylpiperazin-1-yl)phenylamino)quinolin-6-yl)benzonitrile],BMX,MAPKAPK2,–,–
"CN1CCN(c2ccc(Nc3ccnc4ccc(-c5cc(F)c(F)c(F)c5)cc34)cc2)CC1 [N-(4-(4-methylpiperazin-1-yl)phenyl)-6-(3,4,5-trifluorophenyl)quinolin-4-amine]",–,MAPKAPK2,PRAK,Activity [5]: NEK2; Activity [6]: CHEK1
CN1CCN(c2ccc(Nc3ccnc4ccc(-c5ccc(C(F)(F)F)cc5)cc34)cc2)CC1 [N-(4-(4-methylpiperazin-1-yl)phenyl)-6-(4-(trifluoromethyl)phenyl)quinolin-4-amine],–,–,PRAK,Activity [7]: C-TAK1; Activity [5]: NEK2; Activity [6]: CHEK1
COc1ccc(-c2ccc3nccc(Nc4ccc(N5CCN(C(C)C)CC5)cc4)c3c2)cc1 [N-(4-(4-isopropylpiperazin-1-yl)phenyl)-6-(4-methoxyphenyl)quinolin-4-amine],BMX,MAPKAPK2,–,–
"Cc1ccc(C)c(-c2ccc3nccc(Nc4ccc(N5CCN(C)CC5)cc4)c3c2)c1 [6-(2,5-dimethylphenyl)-N-(4-(4-methylpiperazin-1-yl)phenyl)quinolin-4-amine]",–,MAPKAPK2,PRAK,Activity [3]: AKT3; Activity [5]: NEK2
CN1CCN(c2ccc(Nc3ccnc4ccc(-c5ccc(C(C)(C)C)cc5)cc34)cc2)CC1 [6-(4-tert-butylphenyl)-N-(4-(4-methylpiperazin-1-yl)phenyl)quinolin-4-amine],–,MAPKAPK2,PRAK,Activity [7]: C-TAK1; Activity [5]: NEK2; Activity [6]: CHEK1
CN1CCN(c2ccc(Nc3ccnc4ccc(-c5cccnc5)cc34)cc2)CC1 [N-(4-(4-methylpiperazin-1-yl)phenyl)-6-(pyridin-3-yl)quinolin-4-amine],–,MAPKAPK2,PRAK,Activity [3]: AKT3
CN(C)CCN1CCN(c2ccc(Nc3ccnc4ccc(-c5ccc(C#N)cc5)cc34)cc2)CC1 [4-(4-(4-(4-(2-(dimethylamino)ethyl)piperazin-1-yl)phenylamino)quinolin-6-yl)benzonitrile],–,MAPKAPK2,–,Activity [7]: C-TAK1; Activity [6]: CHEK1
"CN1CCN(c2ccc(Nc3ccnc4ccc(-c5cccc6cccnc56)cc34)cc2)CC1 [N-(4-(4-methylpiperazin-1-yl)phenyl)-6,8′-biquinolin-4-amine]",BMX,MAPKAPK2,PRAK,Activity [10]: KIT

# Now from value to molecule, other results behind:
Activity [1],Activity [2],Activity [4],SMILES,other results
–,–,PRAK,CN1CCN(c2ccc(Nc3ccnc4ccc(-c5cccc([N+](=O)[O-])c5)cc34)cc2)CC1 [N-(4-(4-methylpiperazin-1-yl)phenyl)-6-(3-nitrophenyl)quinolin-4-amine],Activity [3]: AKT3
–,MAPKAPK2,PRAK,CN1CCN(c2ccc(Nc3ccnc4ccc(-c5cccc(CO)c5)cc34)cc2)CC1 [(3-(4-(4-(4-methylpiperazin-1-yl)phenylamino)quinolin-6-yl)phenyl)methanol],Activity [8]: FLT3; Activity [9]: CHEK2
BMX,MAPKAPK2,–,CN1CCN(c2ccc(N(C)c3ccnc4ccc(-c5ccccc5)cc34)cc2)CC1 [N-methyl-N-(4-(4-methylpiperazin-1-yl)phenyl)-6-phenylquinolin-4-amine],Activity [8]: FLT-3; Activity [10]: KIT
–,MAPKAPK2,PRAK,CC(=O)Nc1cccc(-c2ccc3nccc(Nc4ccc(N5CCN(C)CC5)cc4)c3c2)c1 [N-(3-(4-(4-(4-methylpiperazin-1-yl)phenylamino)quinolin-6-yl)phenyl)acetamide],Activity [11]: GSK3-α
BMX,MAPKAPK2,–,CN1CCN(c2ccc(N(C)c3ccnc4ccc(-c5ccc(C#N)cc5)cc34)cc2)CC1 [4-(4-(methyl(4-(4-methylpiperazin-1-yl)phenyl)amino)quinolin-6-yl)benzonitrile],Activity [8]: FLT-3; Activity [10]: KIT
